Measurements reported in PMC6839174, “Targeting the Formyl Peptide Receptor type 1 to prevent the adhesion of ovarian cancer cells onto mesothelium and subsequent invasion” (Journal of Experimental & Clinical Cancer Research : CR, 2019).
Non-standard residues stand in square brackets, D forms with d. Aib = CC(C)(N)C(=O)O

What was measured:
[1] = design: method as in PMID 28465589; conditions: mice, ref [36], cited from earlier work
A2780 cells [2] = assay: Adhesion of A2780 cells onto extracellular matrix proteins; assay type: cell-based, Human; conditions: A2780 cells lacking uPAR and FPR1, 10 nM RI-3; BSA, Vn, Fn, Lm or Coll; three independent experiments
Experimental: Adhesion assays were performed using 24 multi-well plates coated with 1% BSA, 5 μg mL vitronectin (Vn), 5 μg mL fibronectin (Fn), 5 μg mL laminin (Lm) or 15 μg mL collagen (Coll) diluted in serum-free medium. Sub-confluent cells were harvested by a mild trypsinization, incubated with 10% FBS / DMEM for 1 h at 37 °C, 5% CO2, acid treated with a buffer containing 50 mM glycin-HC1, 0.1 M NaCl, pH 3 for 4 min at 22 °C, to remove receptor-bound ligands, and counted. Viable cells (2 × 10^5 cells per well) were plated in serum-free medium, in the absence or presence of 2 μg/mL R3 mAb recognizing the DI uPAR domain, 2 μg/mL399 anti-uPAR (American Diagnostica), 2 μg/mL anti-uPAR84-95 (PRIMM), 2 μg/mL anti-α-tubulin (Cell Signaling) Abs or 10 nM RI-3, and allowed to adhere for 2 h at 37 °C, 5% CO2. […] At the end of the assay, adherent cells were removed with 0.05% trypsin, and counted. The number of adherent cells was expressed as a percentage of the basal cell adhesion (CTRL). […]
Supplementary file 13046_2019_1465_MOESM1_ESM.zip: Additional file 1: Figure S1. […] The number of adherent cells was expressed as a percentage of CTRL. […] Then, A2780 cells suspended in growth medium plus/minus 10 nM RI-3 were seeded onto the mesothelial cell monolayer and invasion of mesothelium by A2780 cells was monitored in real-time as changes in Cell Index due to breaking of the monolayer integrity. […]

[3] = tested on: sarcoma and melanoma cells; conditions: dose dependent, ref [36], [37]; cited from earlier work
Excerpt: (§1) Human FPR1, originally identified in neutrophils, monocytes and macrophages, has been shown in recent years, to be expressed also in many non-myelocytic cells. Aberrant expression of FPR1 was detected in tumors of different origin and reported as a negative prognostic factor [29–31]. While the role of uPAR in favoring intra-abdominal dissemination of ovarian cancer cells is largely documented, no data regarding expression and possible role of FPR1 on the surface of ovarian cancer cells are currently available. In the past years, we generated synthetic peptides containing the s ...

FPR1 = conditions: ref [36], cited from earlier work
Excerpt: as §1

[4] = cited from earlier work
Excerpt: as §1

[5] = tested on: p38 MAPK and PI3K/AKT signaling cascades; conditions: ref [36]; cited from earlier work
Excerpt: as §1

[6] = tested on: SKOV-3 and primary EOC cells; assay: Cell adhesion to vitronectin, SKOV-3 and primary EOC cells (summary statement); assay type: cell-based, human; conditions: pre-exposure
Experimental: Adhesion assays were performed using 24 multi-well plates coated with 1% BSA, 5 μg mL vitronectin (Vn), 5 μg mL fibronectin (Fn), 5 μg mL laminin (Lm) or 15 μg mL collagen (Coll) diluted in serum-free medium. Sub-confluent cells were harvested by a mild trypsinization, incubated with 10% FBS / DMEM for 1 h at 37 °C, 5% CO2, acid treated with a buffer containing 50 mM glycin-HC1, 0.1 M NaCl, pH 3 for 4 min at 22 °C, to remove receptor-bound ligands, and counted. Viable cells (2 × 10^5 cells per well) were plated in serum-free medium, in the absence or presence of 2 μg/mL R3 mAb recognizing the DI uPAR domain, 2 μg/mL399 anti-uPAR (American Diagnostica), 2 μg/mL anti-uPAR84-95 (PRIMM), 2 μg/mL anti-α-tubulin (Cell Signaling) Abs or 10 nM RI-3, and allowed to adhere for 2 h at 37 °C, 5% CO2. […] At the end of the assay, adherent cells were removed with 0.05% trypsin, and counted. The number of adherent cells was expressed as a percentage of the basal cell adhesion (CTRL). The experiments were performed at least three times in triplicate.
This assay was performed using E-16-well plates and the xCELLigence Real Time Cell Analysis technology. […] The impedance value of each well was automatically monitored in real-time for at least 2 h and expressed as a cell index value. […]

A2780 cells [7] = assay: HPMC invasion by A2780 cells monitored in real time; assay type: cell-based, Human; conditions: 10 nM RI-3; xCELLigence; quadruplicate representative of 2 replicates
Experimental: (§2) HPMCs (5 × 10^3 cells/well) suspended in growth medium, were seeded in E-16-well plates and allow to adhere for 18–20 h until they form a confluent monolayer, prior to seeding EOC cells (2 × 10^4 cells/well) in growth medium plus/minus 10 nM RI-3. When HPMCs are challenged with invading cells, there is a drop in electrical resistance within 2–4 h which is monitored in real-time as the Cell Index changes due to the rupture of mesothelium. The experiments were performed three times in quadruplicate.
Supplementary file 13046_2019_1465_MOESM1_ESM.zip: Additional file 1: Figure S1. Adhesion and mesothelial invasion properties of uPAR and FPR1 lacking EOC cells. a. […] analysis of human ovarian carcinoma A2780 cells with (CD87)-APC-conjugated anti-uPAR or PE-conjugated FPR1 antibodies. b. Cell adhesion of A2780 cells on 1% BSA (CTRL), Vn-, Fn-Lm or Coll-coated plates, in the presence or the absence of 10 nM RI-3. The number of adherent cells was expressed as a percentage of CTRL. Data are the means ± SD of three independent experiment. c. Mesothelium invasion by A2780 cells. […] Then, A2780 cells suspended in growth medium plus/minus 10 nM RI-3 were seeded onto the mesothelial cell monolayer and invasion of mesothelium by A2780 cells was monitored in real-time as changes in Cell Index due to breaking of the monolayer integrity. […]

SKOV-3 cells [8] = assay: GFP-SKOV-3 cell adhesion onto mesothelium (HPMC monolayer); assay type: cell-based, Human; conditions: means of three independent experiments in triplicate
Experimental: (§3) HPMCs (1 × 10^5 cells/well) suspended in growth medium, were seeded in 24-well plates and allowed to adhere for about 20 h until they form a confluent monolayer, prior to seeding GFP-tagged EOC cells suspended in growth medium plus diluents or 10 nM RI-3. At the indicated times, plates were accurately washed with PBS and cell-associated fluorescence was assessed by a fluorescence plate reader a fluorescence plate reader (Victor 3, Perkin Elmer), using 485 nm excitation and 535 nm emission filters. The experiments were performed three times in triplicate.

primary EOC cells = assay: GFP-EOC (primary) cell adhesion onto mesothelium (HPMC monolayer); assay type: cell-based, human; conditions: three independent experiments in triplicate
Experimental: as §3

SKOV-3 cells [9] = assay: HPMC invasion by SKOV-3 cells monitored in real time; assay type: cell-based, Human; conditions: 10 nM RI-3; xCELLigence cell index, slopes 20–24 h; quadruplicate representative of 3 replicates
Experimental: as §2

[10] = ref [36]; cited from earlier work
Excerpt: On the other hand, despite a variety of natural and synthetic compounds that interfere with FPR1-dependent pathways antagonizing FPR1functions have been described, the majority had off-target effects, discouraging their clinical development.

For “Ac-[dY][dR][Aib][dR]-NH2 [RI-3, retro-inverso peptide, uPAR/FPR1 antagonist]”, the body weight ([1]; versus vehicle-treated animals) is listed as “no change of body weight”, the tolerability in vivo [1] is listed as “well tolerated in vivo” and the visible side-effects [1] is listed as “no visible side-effects”. For the same substance, the A2780 cell adhesion (A2780 cells [2]) was “ineffective”, the “concentration range for overall 50% reduction of cell invasion” value [3] was “nanomolar range” and the “concentration range for overall 50% reduction of cell migration” value [3] was “picomolar”. The “competition for binding to FPR1” value (FPR1; competes with fMLF and SRSRY) was “competes with fMLF and SRSRY for binding to FPR1”, the “SRSRY-induced FPR1 internalization” value (FPR1) was “preventing SRSRY-induced FPR1 internalization” and the “stability in human serum” value [4] was “stable in human serum”. The “p38 MAPK and PI3K/AKT signaling cascades” value [5] was “preventing SRSRY-induced FPR1 internalization as well as p38 MAPK and PI3K/AKT signaling cascades”, the “extent of cell adhesion to vitronectin (abstract)” value [6] was “decreases to basal level” and the “A2780 cell crossing of mesothelium” value (A2780 cells [7]) was “ineffective”. The “reduction of cell associated fluorescence (SKOV-3 adhesion to mesothelium)” value (shortened to “reduction … (SKOV-3 adhesion to mesothelium)”) (SKOV-3 cells [8]; 10 nM RI-3, after 5 min) was 57%, the “reduction … (SKOV-3 adhesion to mesothelium)” value (SKOV-3 cells [8]; 10 nM RI-3, after 10 min) was 47% and the “reduction … (SKOV-3 adhesion to mesothelium)” value (SKOV-3 cells [8]; 10 nM RI-3, after 20 min) was 58%. The “reduction … (SKOV-3 adhesion to mesothelium)” value (SKOV-3 cells [8]; 10 nM RI-3, after 40 min) was 54%, the “reduction of EOC cell adhesion onto mesothelium” value (primary EOC cells; 10 nM RI-3, after 5 min) was 72% and the “reduction of EOC cell adhesion onto mesothelium” value (primary EOC cells; 10 nM RI-3, after 10 min) was 51%. The “reduction of EOC cell adhesion onto mesothelium” value (primary EOC cells; 10 nM RI-3, after 20 min) was 47%, the “reduction of EOC cell adhesion onto mesothelium” value (primary EOC cells; 10 nM RI-3, after 40 min) was 46% and the “capability of SKOV-3 cells to disrupt mesothelial cell monolayer” value (SKOV-3 cells [9]) was “abrogated the capability of SKOV-3 cells to disrupt mesothelial cell monolayer”. For the same substance, the cell proliferation [10] was “does not affect cell proliferation”.
